Key:
[1] = system: Human betaherpesvirus 5; test: Effective dose required to inhibit cell growth against HCMV (AD169); type: functional; conditions: read-out: ED50 (the source's name)
[2] = system: Human alphaherpesvirus 3; test: Effective dose required to inhibit cell growth against VZV (Ellen); type: functional; conditions: read-out: ED50 (the source's name)
[3] = system: Human alphaherpesvirus 1; test: Effective dose required to inhibit cell growth against HSV-1 (schooler); type: functional; conditions: read-out: ED50 (the source's name)
[4] = system: Human alphaherpesvirus 2; test: Effective dose required to inhibit cell growth against HSV-2 (186); type: functional; conditions: read-out: ED50 (the source's name)
[5] = system: Human alphaherpesvirus 2; test: microbe, parasite or virus in culture; conditions: Human alphaherpesvirus 2, read-out: ED50
[6] = system: Human alphaherpesvirus 3; test: microbe, parasite or virus in culture; conditions: Human alphaherpesvirus 3, read-out: ED50
[7] = system: Human alphaherpesvirus 1; test: microbe, parasite or virus in culture; conditions: Human alphaherpesvirus 1, read-out: ED50
[8] = system: Human betaherpesvirus 5; test: Effective dose required to inhibit cell growth against HCMV (AD169); Value ranges from 20-40; type: functional; conditions: read-out: ED50 (the source's name)
[9] = system: Human alphaherpesvirus 3; test: Effective dose required to inhibit cell growth against VZV (Ellen); Value ranges from 25-63; type: functional; conditions: read-out: ED50 (the source's name)
[10] = system: Human alphaherpesvirus 2; test: Effective dose required to inhibit cell growth against HSV-2 (186); Value ranges from 0.3-0.7; type: functional; conditions: read-out: ED50 (the source's name)
[11] = system: Human betaherpesvirus 5; test: Effective dose required to inhibit cell growth against HCMV (AD169); Value ranges from 18-35; type: functional; conditions: read-out: ED50 (the source's name)
[12] = system: Human alphaherpesvirus 1; test: Effective dose required to inhibit cell growth against HSV-1 (schooler); Value ranges from 0.7-1.7; type: functional; conditions: read-out: ED50 (the source's name)
[13] = system: Human alphaherpesvirus 3; test: Effective dose required to inhibit cell growth against VZV (Ellen); Value ranges from 0.7-1.7; type: functional; conditions: read-out: ED50 (the source's name)
[14] = system: Human alphaherpesvirus 3; test: Effective dose required to inhibit cell growth against VZV (Ellen); Value ranges from 1.8-3.5; type: functional; conditions: read-out: ED50 (the source's name)
[15] = system: Human betaherpesvirus 5; test: Effective dose required to inhibit cell growth against HCMV (AD169); Value ranges from 3.5-35; type: functional; conditions: read-out: ED50 (the source's name)
[16] = system: Human alphaherpesvirus 1; test: Effective dose required to inhibit cell growth against HSV-1 (schooler); Value ranges from 0.7-1.8; type: functional; conditions: read-out: ED50 (the source's name)
[17] = system: Human alphaherpesvirus 3; test: Effective dose required to inhibit cell growth against VZV (Ellen); Value ranges from 88-177; type: functional; conditions: read-out: ED50 (the source's name)
[18] = system: Human alphaherpesvirus 2; test: Effective dose required to inhibit cell growth against HSV-2 (186); Value ranges from 88-176; type: functional; conditions: read-out: ED50 (the source's name)

`Nc1ccn([C@@H]2C(F)C(CO)[C@@H]2CO)c(=O)n1` (stereo partly drawn) was tested. Which EC50 [1] did it give?
The EC50 was greater than 411 µM.

And the EC50 [2]?
Its EC50 is greater than 411 µM.

And the EC50 [3]?
The EC50 was greater than 411 µM.

And the EC50 [4]?
The EC50 was no less than 411 µM.

Which EC50 [1] does the source give for `O=c1[nH]c(=O)n([C@@H]2C(F)[C@H](CO)C2CO)cc1/C=C/Br` (stereo partly drawn) here?
The EC50 was greater than 286 µM.

What about the EC50 [2] of the same compound?
The EC50 was 286 µM.

What about the EC50 [3] of the same compound?
Its EC50 is greater than 286 µM.

What about the EC50 [4] of the same compound?
Its EC50 is greater than 286 µM.

`Nc1nc2c(ncn2COCCO)c(=O)[nH]1` [ACYCLOVIR] was tested. Which EC50 [5] did it give?
The EC50 was 0.4 µM.

What about the EC50 [6] of the same compound?
Its EC50 is 2 µM.

And the EC50 [7]?
Its EC50 is 0.2 µM.

And the EC50 [8]?
The EC50 was 20 µM.

How did the EC50 [1] turn out when `O=c1[nH]c(=O)n([C@@H]2C(F)[C@H](CO)C2CO)cc1/C=C/I` (stereo partly drawn) was run?
The EC50 was greater than 252 µM.

What about the EC50 [9] of the same compound?
The EC50 was 25 µM.

And the EC50 [3]?
Its EC50 is greater than 252 µM.

And the EC50 [4]?
Its EC50 is greater than 252 µM.

`Nc1nc(O)c2ncn([C@@H]3C(F)[C@H](CO)C3CO)c2n1` (single isomer, unassigned; (-)) was tested. Which EC50 [10] did it give?
The EC50 was 0.3 µM.

What about the EC50 [11] of the same compound?
Its EC50 is 18 µM.

And the EC50 [12]?
The EC50 was 0.7 µM.

What about the EC50 [13] of the same compound?
Its EC50 is 0.7 µM.

Which EC50 [14] does the source give for `Nc1nc(O)c2ncn([C@@H]3C(F)[C@H](CO)C3CO)c2n1` (mixture of isomers) here?
The EC50 was 1.8 µM.

What about the EC50 [15] of the same compound?
Its EC50 is 3.5 µM.

And the EC50 [4]?
The EC50 was 0.7 µM.

And the EC50 [16]?
The EC50 was 0.7 µM.

Which EC50 [1] does the source give for `Nc1nc(O)c2ncn([C@@H]3C(F)[C@H](CO)C3CO)c2n1` (stereo partly drawn) here?
The EC50 was greater than 353 µM.

And the EC50 [3]?
Its EC50 is 88 µM.

What about the EC50 [17] of the same compound?
The EC50 was 88 µM.

What about the EC50 [18] of the same compound?
The EC50 was 88 µM.

Reference: ChEMBL document CHEMBL1152115, “Optically active fluorinated cyclobutane nucleoside analogs with potent anti-herpes activity” (1993)
